Test results reported in ChEMBL document CHEMBL1641556, “MDCK cell permeability characteristics of a sulfenamide prodrug: strategic implications in considering sulfenamide prodrugs for oral delivery of NH-acids” (Bioorg Med Chem Lett, 2011).

Legend:
[1] = Apparent permeability from apical to basolateral side of MDCK cells; format: ADME, cell-based, Canis lupus familiaris; settings: dog
[2] = Apparent permeability from basolateral to apical side of MDCK cells; format: ADME, cell-based, Canis lupus familiaris; settings: dog
[3] = Hydrolytic stability of the compound assessed as half life at pH 6; format: physicochemical; settings: buffer

Row | SMILES | Papp A→B [1] | Papp B→A [2] | t1/2 [3]
1 | CC(=O)NC[C@H]1CN(c2ccc(N3CCOCC3)c(F)c2)C(=O)O1 [LINEZOLID] | 9 ×10⁻⁶ cm/s | 10.6 ×10⁻⁶ cm/s | –
2 | N[C@@H](CSNC(=O)c1ccccc1)C(=O)O | – | – | 6.3 yr
